The subject of data set [1] is non-small cell lung cancer cell H3122 subcutaneous tumors. Kind of data set: Mouse tumor model of non-small cell lung cancer cell H3122. To be noted: for tumor inhibition rate: Bal b/c mice. It counts as in vivo. As for the experimental part:
Similarly, 72 Bal b/c female mice, 4-6 weeks old, were purchased from Shanghai SLAC Laboratory Animal Co., Ltd., and maintained in an SPF laboratory. Drinking water and bedding were both sterilized by autoclaving. All operations involving the mice were performed under aseptic conditions. At day 0, 5×10^6 non-small cell lung cancer cells H3122 (purchased from ATCC) were injected subcutaneously into the left flank of all mice. At day 15, all mice were divided into eight groups (9 mice per group), and the first group of mice were orally administered with methyl cellulose (HKI) solvent, the second group of mice were orally administered with Compound 1 at a dose of 5 mg/kg mouse weight, the third group of mice were orally administered with Compound 1 at a dose of 10 mg/kg mouse weight, the fourth group of mice were orally administered with Compound 1 at a dose of 20 mg/kg mouse weight, the fifth group of mice were orally administered with methyl cellulose (HKI) solvent, the sixth group of mice were orally administered with Compound 10 at a dose of 10 mg/kg mouse weight, the seventh group of mice were orally administered with Compound 10 at a dose of 20 mg/kg mouse weight, and the eighth group of mice were orally administered with Compound 10 at a dose of 40 mg/kg mouse weight daily. Starting from the administration, the length/width of the subcutaneous tumor was measured daily with a vernier caliper, and the weight of the mice was recorded daily to observe the effect of Compounds 1 and 10 on the body weight of the mice. For the first to fourth groups, the mice were sacrificed at day 36 and the subcutaneous tumors were collected. The tumors were weighed, and then the tumor tissues were used to prepare protein lysates for use. The growth trend of the subcutaneous tumor within 16-36 days was plotted, wherein the tumor volume was calculated as length×width×width/2 mm^3. For the fifth to eighth groups, the mice were sacrificed at day 43 and the subcutaneous tumors were collected. The tumors were weighed, and then the tumor tissues were used to prepare protein lysates for use. The growth trend of the subcutaneous tumor within 16-43 days was plotted, wherein the tumor volume was calculated as length×width×width/2 mm^3.

Another data set has as its system BaF3-NPM-ALK. In words: Cell growth (Cell Titer-Glo viability), BaF3-NPM-ALK. It counts as cell-based. To be noted: Mus musculus; BaF3-NPM-ALK (stably expressing ALK kinase), 72 hrs. On the technique in general: In ATP-based viability assays light output follows the ATP content of the culture.
In the next data set the test system is BaF3-TEL-EGFR-T790M. In words: Cell growth (Cell Titer-Glo viability), BaF3-TEL-EGFR-T790M. The following applies: Mus musculus; BaF3-TEL-EGFR-T790M (EGFR T790M mutant kinase), 72 hrs. The format is cell-based. The method, boiled down: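 BaF3, TEL-kinase fusion, IL-3-free, transgene-driven growth; HCC827 = EGFR del19, NCI-H3255 = EGFR L858R. Viable cells via CellTiter-Glo, plate-reader luminescence.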

A further data set deals with CHO. Kind of data set: Cell growth (Cell Titer-Glo viability), CHO. The format is cell-based, Chinese hamster. To be noted: Cricetulus griseus; CHO Chinese hamster ovary cell, 72 hrs; read-out: GI50.
The next data set has as its system A549. In words: Growth of cancer cells (Cell Titer-Glo viability), A549. It counts as cell-based. The following applies: Homo sapiens; A549 (wild-type EGFR), 72 hrs.
In another data set the test system is BaF3-TEL-EGFR-L858R. In words: Cell growth (Cell Titer-Glo viability), BaF3-TEL-EGFR-L858R. The format is cell-based. To be noted: Mus musculus; BaF3-TEL-EGFR-L858R (EGFR L858R mutant kinase), 72 hrs. As for the experimental part: By testing the effect of the novel kinase inhibitors on the proliferation of cancer cells, the selectivity of the compounds of the present disclosure in inhibiting the proliferation of cancer cells was further assessed. […]
The number of viable cells was determined quantitatively by a microplate reader using Cell Titer-Glo® (Promega, US) chemiluminescence cell viability assay kit.

The subject of a further data set is NCI-H1975. Kind of data set: Growth of cancer cells (Cell Titer-Glo viability), NCI-H1975. The format is cell-based. The following applies: Homo sapiens; NCI-H1975 (EGFR L858R/T790M double mutant), 72 hrs. The method, boiled down: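 Cells are counted as viable by CellTiter-Glo chemiluminescence. Murine BaF3 lines depend on a stably transfected TEL-fused kinase after IL-3 withdrawal, and the NSCLC lines express mutant EGFR.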

Structures are written as SMILES.

A word on the GI50: it is the concentration giving 50% growth inhibition. In the case of `C=CC(=O)Nc1cc(Nc2ncc(Cl)c(Nc3ccccc3S(=O)(=O)C(C)C)n2)c(OC)cc1N1CCN(CC)CC1` [Compound 1, N-(5-(5-chloro-4-(2-(isopropylsulfonyl)phenylamino)pyrimidin-2-ylamino)-2-(4-ethylpiperazin-1-yl)-4-methoxyphenyl)acrylamide], the tumor inhibition rate turned out to be 61.5% in data set [1] (oral daily 10 mg/kg, on the second day of administration) and 77.7% in data set [1] (oral daily 20 mg/kg). Moreover, the “body weight of the mice” value in data set [1] (oral daily 10 mg/kg) was “did not decrease”. Moreover, the GI50 with BaF3-NPM-ALK was less than 0.3 nM; in the data set on BaF3-TEL-EGFR-T790M, 32 nM; with CHO, 200 nM; with A549, 410 nM; in the data set on BaF3-TEL-EGFR-L858R, less than 3 nM; with NCI-H1975 it was 67 nM.
In the case of `C=CC(=O)Nc1cc(Nc2ncc(Cl)c(Nc3ccccc3S(=O)(=O)C(C)C)n2)c(OC)cc1N1CCCN(C)CC1` [Compound 10, N-(5-(5-chloro-4-(2-(isopropylsulfonyl)phenylamino)pyrimidin-2-ylamino)-4-methoxy-2-(4-methyl-1,4-homopiperazin-1-yl)phenyl)acrylamide], the tumor inhibition rate was determined as 68.3% in data set [1] (oral daily 20 mg/kg) and 78.4% in data set [1] (oral daily 40 mg/kg). In addition, the “body weight of the mice” value in data set [1] (oral daily 20 mg/kg) and in data set [1] (oral daily 40 mg/kg) was “did not decrease” in each case. Also, the 50% growth inhibitory concentration (GI50) was found to be 1 nM in the data set on BaF3-NPM-ALK, 990 nM in the data set with CHO, 510 nM with A549 and 15 nM in the data set with NCI-H1975.

The values above are taken from US10350210B2, “EGFR and ALK dual inhibitor” (PRECEDO PHARMACEUTICALS CO., LTD, priority 2015, dated 2019).
